ChEMBL document CHEMBL5724914, “Linking interpersonal differences in gut microbiota composition and drug biotransformation activity” (2024)

Tests used:
[1] = (§1) The drug is tested on Z-026 corresponding to metagenome with ENA study accession number: PRJEB37062 and ENA sample accession number: ERS12561825 for biotransformation under anaerobic condition. The drug concentrations were measured over 9 timepoints collected between 0 and 24 hours of incubation by liquid-chromatography-coupled mass spectrometry (LC–MS); settings: 2 µM
[2] = human gut metagenome, 24 h, 2 µM
[3] = human gut metagenome, 24 h, 2 µM; remark: listed apart in the source
[4] = (§2) The drug is tested on Z-029 corresponding to rat gut metagenome with ENA study accession number: PRJEB37062 and ENA sample accession number: ERS12561828 for biotransformation under anaerobic condition. The drug concentrations were measured over 9 timepoints collected between 0 and 24 hours of incubation by liquid-chromatography-coupled mass spectrometry (LC–MS); settings: 2 µM
[5] = human gut metagenome, 24 h, 2 µM; remark: listed apart in the source
[6] = human gut metagenome, 24 h, 2 µM; remark: listed apart in the source
[7] = as §2, with “on WLS-090” for “on Z-029”, “to human” for “to rat”, “number: ERS12561753” for “number: ERS12561828”; settings: 2 µM
[8] = human gut metagenome, 24 h, 2 µM; remark: listed apart in the source
[9] = as §2, with “on Z-022” for “on Z-029”, “to mouse” for “to rat”, “number: ERS12561821” for “number: ERS12561828”; settings: 2 µM
[10] = as §2, with “on Z-001” for “on Z-029”, “to mouse” for “to rat”, “number: ERS12561801” for “number: ERS12561828”; settings: 2 µM
[11] = as §2, with “on Z-009” for “on Z-029”, “to pig” for “to rat”, “number: ERS12561809” for “number: ERS12561828”; settings: 2 µM
[12] = as §2, with “on WLS-370” for “on Z-029”, “to human” for “to rat”, “number: ERS12561793” for “number: ERS12561828”; settings: 2 µM
[13] = human gut metagenome, 24 h, 2 µM; remark: listed apart in the source
[14] = human gut metagenome, 24 h, 2 µM; remark: listed apart in the source
[15] = human gut metagenome, 24 h, 2 µM; remark: listed apart in the source
[16] = as §1, with “Z-004” for “Z-026”, “ERS12561804” for “ERS12561825”; settings: 2 µM
[17] = human gut metagenome, 24 h, 2 µM; remark: listed apart in the source
[18] = as §2, with “on WLS-027” for “on Z-029”, “to human” for “to rat”, “number: ERS12561744” for “number: ERS12561828”; settings: 2 µM
[19] = as §2, with “on Z-024” for “on Z-029”, “to pig” for “to rat”, “number: ERS12561823” for “number: ERS12561828”; settings: 2 µM
[20] = as §2, with “on WLS-086” for “on Z-029”, “to human” for “to rat”, “number: ERS12561752” for “number: ERS12561828”; settings: 2 µM
Note: call rule not given here.

| SMILES | Bacterial Biotransformation [1] | Bacterial Biotransformation [2] | Bacterial Biotransformation [3] | Bacterial Biotransformation [4] | Bacterial Biotransformation [5] | Bacterial Biotransformation [6] | Bacterial Biotransformation [7] | Bacterial Biotransformation [8] | Bacterial Biotransformation [9] | Bacterial Biotransformation [10] | Bacterial Biotransformation [11] | Bacterial Biotransformation [12] | Bacterial Biotransformation [13] | Bacterial Biotransformation [14] | Bacterial Biotransformation [15] | Bacterial Biotransformation [16] | Bacterial Biotransformation [17] | Bacterial Biotransformation [18] | Bacterial Biotransformation [19] | Bacterial Biotransformation [20] |
| --- | --- | --- | --- | --- | --- | --- | --- | --- | --- | --- | --- | --- | --- | --- | --- | --- | --- | --- | --- | --- |
| O=P(O)(O)O.c1ccc(CN(CC2=NCCN2)c2ccccc2)cc1 [ANTAZOLINE PHOSPHATE] | Compound NOT metabolized | Compound NOT metabolized | Compound NOT metabolized | Compound NOT metabolized | Compound NOT metabolized | Compound metabolized | Compound metabolized | Compound metabolized | Compound NOT metabolized | Compound NOT metabolized | Compound NOT metabolized | Compound metabolized | Compound metabolized | Compound metabolized | Compound metabolized | Compound metabolized | Compound NOT metabolized | Compound NOT metabolized | Compound metabolized | Compound metabolized |
| CN1CCC(=C2c3ccccc3CCc3cccnc32)CC1.O=C(O)/C=C\C(=O)O.O=C(O)/C=C\C(=O)O [AZATADINE MALEATE] | Compound NOT metabolized | Compound NOT metabolized | Compound NOT metabolized | Compound NOT metabolized | Compound NOT metabolized | Compound NOT metabolized | Compound NOT metabolized | Compound NOT metabolized | Compound NOT metabolized | Compound NOT metabolized | Compound NOT metabolized | Compound NOT metabolized | Compound NOT metabolized | Compound NOT metabolized | Compound NOT metabolized | Compound NOT metabolized | Compound NOT metabolized | Compound NOT metabolized | Compound NOT metabolized | Compound NOT metabolized |
| CC(=O)OCC(=O)[C@@]1(O)[C@@H](C)C[C@H]2[C@@H]3CCC4=CC(=O)C=C[C@]4(C)[C@@]3(F)[C@@H](O)C[C@@]21C [BETAMETHASONE ACETATE] | Compound metabolized | Compound metabolized | Compound NOT metabolized | Compound metabolized | Compound metabolized | Compound metabolized | Compound metabolized | Compound metabolized | Compound metabolized | Compound metabolized | Compound metabolized | Compound metabolized | Compound metabolized | Compound metabolized | Compound metabolized | Compound NOT metabolized | Compound metabolized | Compound metabolized | Compound metabolized | Compound metabolized |
| CC(C)NCC(O)COc1ccc(CCOCC2CC2)cc1 (stereo not given) [BETAXOLOL] | Compound NOT metabolized | Compound NOT metabolized | Compound metabolized | Compound NOT metabolized | Compound NOT metabolized | Compound NOT metabolized | Compound metabolized | Compound NOT metabolized | Compound NOT metabolized | Compound NOT metabolized | Compound NOT metabolized | Compound NOT metabolized | Compound NOT metabolized | Compound metabolized | Compound metabolized | Compound metabolized | Compound NOT metabolized | Compound NOT metabolized | Compound metabolized | Compound metabolized |
| CC(C)(Oc1ccc(CCNC(=O)c2ccc(Cl)cc2)cc1)C(=O)O [BEZAFIBRATE] | Compound NOT metabolized | Compound metabolized | Compound metabolized | Compound NOT metabolized | Compound metabolized | Compound metabolized | Compound metabolized | Compound metabolized | Compound metabolized | Compound NOT metabolized | Compound metabolized | Compound metabolized | Compound metabolized | Compound metabolized | Compound metabolized | Compound NOT metabolized | Compound metabolized | Compound metabolized | Compound metabolized | Compound metabolized |
| CC(O)(CS(=O)(=O)c1ccc(F)cc1)C(=O)Nc1ccc(C#N)c(C(F)(F)F)c1 (stereo not given) [BICALUTAMIDE] | Compound NOT metabolized | Compound NOT metabolized | Compound NOT metabolized | Compound NOT metabolized | Compound NOT metabolized | Compound NOT metabolized | Compound NOT metabolized | Compound NOT metabolized | Compound NOT metabolized | Compound NOT metabolized | Compound NOT metabolized | Compound NOT metabolized | Compound NOT metabolized | Compound NOT metabolized | Compound NOT metabolized | Compound NOT metabolized | Compound NOT metabolized | Compound NOT metabolized | Compound NOT metabolized | Compound NOT metabolized |
| CCCC1O[C@@H]2C[C@H]3[C@@H]4CCC5=CC(=O)C=C[C@]5(C)[C@H]4[C@@H](O)C[C@]3(C)[C@]2(C(=O)CO)O1 (stereo not given in full) [BUDESONIDE] | Compound NOT metabolized | Compound metabolized | Compound NOT metabolized | Compound NOT metabolized | Compound NOT metabolized | Compound metabolized | Compound metabolized | Compound metabolized | Compound NOT metabolized | Compound NOT metabolized | Compound metabolized | Compound metabolized | Compound metabolized | Compound metabolized | Compound metabolized | Compound NOT metabolized | Compound metabolized | Compound metabolized | Compound metabolized | Compound metabolized |
| O=C(NCc1ccccc1)OCCO [BURAMATE] | Compound NOT metabolized | Compound NOT metabolized | Compound NOT metabolized | Compound NOT metabolized | Compound NOT metabolized | Compound NOT metabolized | Compound NOT metabolized | Compound NOT metabolized | Compound NOT metabolized | Compound NOT metabolized | Compound NOT metabolized | Compound NOT metabolized | Compound NOT metabolized | Compound NOT metabolized | Compound NOT metabolized | Compound NOT metabolized | Compound NOT metabolized | Compound NOT metabolized | Compound NOT metabolized | Compound NOT metabolized |
